Where “and” joins values, the source holds several entries; their conditions need not be identical. Equal values may be shown once.
Assay: xn = mol fraction of the nth substance listed

[Br-].[Li+] + O
viscosity
Conditions | 293.15 K | 298.15 K | 303.15 K | 308.15 K | 313.15 K | 318.15 K | 323.15 K
100 kPa, x1 = 0.018 | – | 1.019 mPa·s | 0.916 mPa·s | 0.832 mPa·s | 0.764 mPa·s | 0.705 mPa·s | 0.656 mPa·s
100 kPa, x1 = 0.035 | – | 1.161 mPa·s | 1.052 mPa·s | 0.966 mPa·s | 0.888 mPa·s | 0.822 mPa·s | 0.763 mPa·s
100 kPa, x1 = 0.058 | – | 1.307 mPa·s | 1.185 mPa·s | 1.084 mPa·s | 0.998 mPa·s | 0.922 mPa·s | 0.857 mPa·s
100 kPa, x1 = 0.092 | – | 1.601 mPa·s | 1.452 mPa·s | 1.327 mPa·s | 1.219 mPa·s | 1.126 mPa·s | 1.045 mPa·s
100 kPa, x1 = 0.129 | – | 2.164 mPa·s | 1.972 mPa·s | 1.806 mPa·s | 1.662 mPa·s | 1.536 mPa·s | 1.427 mPa·s
100 kPa, x1 = 0.17 | – | 3.258 mPa·s | 2.945 mPa·s | 2.683 mPa·s | 2.459 mPa·s | 2.263 mPa·s | 2.093 mPa·s
100 kPa, x1 = 0.206 | – | 5.202 mPa·s | 4.669 mPa·s | 4.221 mPa·s | 3.841 mPa·s | 3.512 mPa·s | 3.225 mPa·s
100 kPa, x1 = 0.246 | – | 9.066 mPa·s | 8.028 mPa·s | 7.154 mPa·s | 6.41 mPa·s | 5.769 mPa·s | 5.198 mPa·s
101 kPa, x1 = 0.0109 | 1.079 mPa·s | – | 0.855 mPa·s | – | – | – | 0.593 mPa·s
101 kPa, x1 = 0.0353 | 1.245 mPa·s | – | 0.999 mPa·s | – | – | – | 0.694 mPa·s
101 kPa, x1 = 0.0649 | 1.472 mPa·s | – | 1.195 mPa·s | – | – | – | 0.842 mPa·s
101 kPa, x1 = 0.1 | 1.8 mPa·s | 1.6 mPa·s | 1.44 mPa·s | – | 1.18 mPa·s | – | –
101 kPa, x1 = 0.101 | 1.854 mPa·s | – | 1.523 mPa·s | – | – | – | 1.093 mPa·s
101 kPa, x1 = 0.12 | 2.11 mPa·s | 1.86 mPa·s | 1.66 mPa·s | – | 1.38 mPa·s | – | –
101 kPa, x1 = 0.131 | 2.377 mPa·s | – | 1.947 mPa·s | – | – | – | 1.408 mPa·s
101 kPa, x1 = 0.14 | 2.35 mPa·s | 2.08 mPa·s | 1.89 mPa·s | – | 1.57 mPa·s | – | –
101 kPa, x1 = 0.15 | 2.6 mPa·s | 2.34 mPa·s | 2.09 mPa·s | – | 1.72 mPa·s | – | –
101 kPa, x1 = 0.16 | 3.12 mPa·s | 2.79 mPa·s | 2.48 mPa·s | – | – | – | –
101 kPa, x1 = 0.1711 | 3.648 mPa·s | – | 2.957 mPa·s | – | – | – | 2.093 mPa·s
101 kPa, x1 = 0.19 | 4.21 mPa·s | 3.73 mPa·s | 3.34 mPa·s | – | – | – | –
101 kPa, x1 = 0.2 | 3.54 mPa·s and 5.05 mPa·s | 3.1 mPa·s and 4.45 mPa·s | 2.77 mPa·s and 3.95 mPa·s | – | – | – | –
101 kPa, x1 = 0.22 | – | 5.61 mPa·s | 5 mPa·s | – | – | – | –
101 kPa, x1 = 0.24 | – | 7.22 mPa·s | 6.36 mPa·s | – | – | – | –
101 kPa, x1 = 0.25 | – | 9.43 mPa·s | 8.1 mPa·s | – | – | – | –

— the CheMixHub viscosity set
